Values of other authors, collected in patent US20030077264A1, “Antimicrobial blood treatment using allicin and related compounds” (priority 2001, published 2003).

How the values were obtained:
Helicobacter pylori = conditions: in medium
[1] = buffer

For “thio-2-propene-1-sulfinic acid S-allyl ester [Allicin]”, the minimum inhibitory concentration (Helicobacter pylori) is listed as 4.0 µg/mL and the half-life [1] is listed as 30 to 40 days.
